Data published in US12077503B2, “Substituted cyclic amides and their use as herbicides” (FMC CORPORATION, priority 2015, dated 2024).

Tests used:
Type in all cases: in vivo
[1] = test system: Kochia (Kochia scoparia); experiment: Test A preemergence; conditions: Bassia scoparia, pre-emergence, 240 h, 0 to 100 scale where 0 is no effect and 100 is complete control, read-out: Kochia plant response rating; for pest or weed control at 31 g/ha: 31 g ai/ha, Preemergence; for pest or weed control at 125 g/ha: 125 g ai/ha, preemergence, visual injury rating, approximately 10 d
Summary of the method: (§1)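 Visual injury, scored on a 0–100 scale relative to untreated controls, was recorded about 10 d after application. Treatments were a preemergence soil spray over planted seeds or a postemergence spray on plants at the one- to two-leaf stage, 2 to 10 cm tall, all in loam soil–sand blend in the greenhouse.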

[2] = test system: barnyardgrass (Echinochloa crus-galli); experiment: Test A preemergence; conditions: Echinochloa crus-galli, pre-emergence, 240 h, 0 to 100 scale where 0 is no effect and 100 is complete control, read-out: Barnyardgrass plant response rating; for pest or weed control at 31 g/ha: 31 g ai/ha, Preemergence; for pest or weed control at 125 g/ha: 125 g ai/ha, preemergence, visual injury rating, approximately 10 d
Summary of the method: as §1

[3] = test system: giant foxtail (Setaria faberii); experiment: Test A preemergence; conditions: Setaria faberi, pre-emergence, 240 h, 0 to 100 scale where 0 is no effect and 100 is complete control, read-out: Foxtail, Giant plant response rating; for pest or weed control at 31 g/ha: 31 g ai/ha, Preemergence; for pest or weed control at 125 g/ha: 125 g ai/ha, preemergence, visual injury rating, approximately 10 d
Summary of the method: as §1

[4] = test system: pigweed (Amaranthus retroflexus); experiment: Test A preemergence; conditions: Amaranthus retroflexus, pre-emergence, 240 h, 0 to 100 scale where 0 is no effect and 100 is complete control, read-out: Pigweed plant response rating; for pest or weed control at 31 g/ha: 31 g ai/ha, Preemergence; for pest or weed control at 125 g/ha: 125 g ai/ha, preemergence, visual injury rating, approximately 10 d
[5] = test system: ragweed (common ragweed, Ambrosia elatior); experiment: Test A preemergence; conditions: Ambrosia artemisiifolia, pre-emergence, 240 h, 0 to 100 scale where 0 is no effect and 100 is complete control, read-out: Ragweed plant response rating; for pest or weed control at 31 g/ha: 31 g ai/ha, Preemergence; for pest or weed control at 125 g/ha: 125 g ai/ha, preemergence, visual injury rating, approximately 10 d
Summary of the method: as §1

[6] = test system: ryegrass, Italian (Italian ryegrass, Lolium multiflorum); experiment: Test A preemergence; conditions: Lolium multiflorum, pre-emergence, 240 h, 0 to 100 scale where 0 is no effect and 100 is complete control, read-out: Ryegrass, Italian plant response rating; for pest or weed control at 31 g/ha: 31 g ai/ha, Preemergence; for pest or weed control at 125 g/ha: 125 g ai/ha, preemergence, visual injury rating, approximately 10 d
Summary of the method: as §1

[7] = test system: Galium (catchweed bedstraw, Galium aparine); experiment: Test A postemergence; conditions: Galium, post-emergence, 240 h, read-out: Galium plant response rating (0 to 100 scale); for pest or weed control at 125 g/ha: 125 g ai/ha, postemergence, visual injury vs untreated controls after approx. 10 d, 0 = no effect, 100 = complete control; for pest or weed control at 31 g/ha: Postemergence, 31 g ai/ha, 0 is no effect, 100 is complete control
Summary of the method: as §1

[8] = test system: Kochia (Kochia scoparia); experiment: Test A postemergence; conditions: Bassia scoparia, post-emergence, 240 h, read-out: Kochia plant response rating (0 to 100 scale); for pest or weed control at 125 g/ha: 125 g ai/ha, postemergence, visual injury vs untreated controls after approx. 10 d, 0 = no effect, 100 = complete control; for pest or weed control at 31 g/ha: Postemergence, 31 g ai/ha, 0 is no effect, 100 is complete control
Summary of the method: as §1

[9] = test system: barnyardgrass (Echinochloa crus-galli); experiment: Test A postemergence; conditions: Echinochloa crus-galli, post-emergence, 240 h, read-out: Barnyardgrass plant response rating (0 to 100 scale); for pest or weed control at 125 g/ha: 125 g ai/ha, postemergence, visual injury vs untreated controls after approx. 10 d, 0 = no effect, 100 = complete control; for pest or weed control at 31 g/ha: Postemergence, 31 g ai/ha, 0 is no effect, 100 is complete control
Summary of the method: as §1

[10] = test system: blackgrass (Alopecurus myosuroides); experiment: Test A postemergence; conditions: Alopecurus myosuroides, post-emergence, 240 h, read-out: Blackgrass plant response rating (0 to 100 scale); for pest or weed control at 125 g/ha: 125 g ai/ha, postemergence, visual injury vs untreated controls after approx. 10 d, 0 = no effect, 100 = complete control; for pest or weed control at 31 g/ha: Postemergence, 31 g ai/ha, 0 is no effect, 100 is complete control
Summary of the method: as §1

[11] = test system: corn (Zea mays); experiment: Test A postemergence; conditions: Zea mays, post-emergence, 240 h, read-out: Corn plant response rating (0 to 100 scale); for plant injury at 125 g/ha: 125 g ai/ha, postemergence, visual injury vs untreated controls after approx. 10 d, 0 = no effect, 100 = complete control; for plant injury at 31 g/ha: Postemergence, 31 g ai/ha, 0 is no effect, 100 is complete control
Summary of the method: as §1

[12] = test system: giant foxtail (Setaria faberii); experiment: Test A postemergence; conditions: Setaria faberi, post-emergence, 240 h, read-out: Foxtail, Giant plant response rating (0 to 100 scale); for pest or weed control at 125 g/ha: 125 g ai/ha, postemergence, visual injury vs untreated controls after approx. 10 d, 0 = no effect, 100 = complete control; for pest or weed control at 31 g/ha: Postemergence, 31 g ai/ha, 0 is no effect, 100 is complete control
Summary of the method: as §1

[13] = test system: pigweed (Amaranthus retroflexus); experiment: Test A postemergence; conditions: Amaranthus retroflexus, post-emergence, 240 h, read-out: Pigweed plant response rating (0 to 100 scale); for pest or weed control at 125 g/ha: 125 g ai/ha, postemergence, visual injury vs untreated controls after approx. 10 d, 0 = no effect, 100 = complete control; for pest or weed control at 31 g/ha: Postemergence, 31 g ai/ha, 0 is no effect, 100 is complete control
Summary of the method: as §1

[14] = test system: ragweed (common ragweed, Ambrosia elatior); experiment: Test A postemergence; conditions: Ambrosia artemisiifolia, post-emergence, 240 h, read-out: Ragweed plant response rating (0 to 100 scale); for pest or weed control at 125 g/ha: 125 g ai/ha, postemergence, visual injury vs untreated controls after approx. 10 d, 0 = no effect, 100 = complete control; for pest or weed control at 31 g/ha: Postemergence, 31 g ai/ha, 0 is no effect, 100 is complete control
Summary of the method: as §1

[15] = test system: ryegrass, Italian (Italian ryegrass, Lolium multiflorum); experiment: Test A postemergence; conditions: Lolium multiflorum, post-emergence, 240 h, read-out: Ryegrass, Italian plant response rating (0 to 100 scale); for pest or weed control at 125 g/ha: 125 g ai/ha, postemergence, visual injury vs untreated controls after approx. 10 d, 0 = no effect, 100 = complete control; for pest or weed control at 31 g/ha: Postemergence, 31 g ai/ha, 0 is no effect, 100 is complete control
Summary of the method: as §1

[16] = test system: wheat (Triticum aestivum); experiment: Test A postemergence; conditions: Triticum aestivum, post-emergence, 240 h, read-out: Wheat plant response rating (0 to 100 scale); for plant injury at 31 g/ha: Postemergence, 31 g ai/ha, 0 is no effect, 100 is complete control
Summary of the method: as §1

[17] = test system: barnyardgrass (Echinochloa crus-galli); experiment: Test B flooded paddy test; conditions: Echinochloa crus-galli, 250 g ai/ha, Flood; 0 to 100 scale where 0 is no effect and 100 is complete control; read-out: Barnyardgrass plant response rating
Summary of the method: (§2)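 Rating scale 0–100 (visual, vs untreated controls) after a 13–15 d greenhouse period; application to the flood layer, 3 cm above soil and maintained; plants at 2-leaf stage when treated.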

[18] = test system: ducksalad (Heteranthera limosa); experiment: Test B flooded paddy test; conditions: Heteranthera limosa, 250 g ai/ha, Flood; 0 to 100 scale where 0 is no effect and 100 is complete control; read-out: Ducksalad plant response rating
Summary of the method: as §2

[19] = test system: rice (Oryra sativa); experiment: Test B flooded paddy test; conditions: Oryza sativa, 250 g ai/ha, Flood; 0 to 100 scale where 0 is no effect and 100 is complete control; read-out: Rice plant response rating
Summary of the method: as §2

[20] = test system: sedge, umbrella (small-flower umbrella sedge, Cyperus difformis); experiment: Test B flooded paddy test; conditions: Cyperus difformis, 250 g ai/ha, Flood; 0 to 100 scale where 0 is no effect and 100 is complete control; read-out: Sedge, Umbrella plant response rating
Summary of the method: as §2

| SMILES | pest or weed control at 31 g/ha [1] [%] | pest or weed control at 125 g/ha [1] [%] | pest or weed control at 31 g/ha [2] [%] | pest or weed control at 125 g/ha [2] [%] | pest or weed control at 31 g/ha [3] [%] | pest or weed control at 125 g/ha [3] [%] | pest or weed control at 31 g/ha [4] [%] | pest or weed control at 125 g/ha [4] [%] | pest or weed control at 31 g/ha [5] [%] | pest or weed control at 125 g/ha [5] [%] | pest or weed control at 31 g/ha [6] [%] | pest or weed control at 125 g/ha [6] [%] | pest or weed control at 125 g/ha [7] [%] | pest or weed control at 31 g/ha [7] [%] | pest or weed control at 125 g/ha [8] [%] | pest or weed control at 31 g/ha [8] [%] | pest or weed control at 125 g/ha [9] [%] | pest or weed control at 31 g/ha [9] [%] | pest or weed control at 125 g/ha [10] [%] | pest or weed control at 31 g/ha [10] [%] | also measured |
| --- | --- | --- | --- | --- | --- | --- | --- | --- | --- | --- | --- | --- | --- | --- | --- | --- | --- | --- | --- | --- | --- |
| CN1C[C@H](c2ccc(Cl)c(F)c2)[C@@H](C(=O)Nc2ccc(F)c(F)c2F)C1=O [Compound 1266] | 40 | 80 | 80 | 90 | 90 | 90 | 20 | 80 | 20 | 60 | 0 | 40 | 60 | 50 | 70 | 30 | 90 | 90 | 60 | 20 | plant injury at 125 g/ha [11]: 90%; plant injury at 31 g/ha [11]: 90%; pest or weed control at 125 g/ha [12]: 80%; pest or weed control at 31 g/ha [12]: 80%; pest or weed control at 125 g/ha [13]: 70%; pest or weed control at 31 g/ha [13]: 20%; pest or weed control at 125 g/ha [14]: 50%; pest or weed control at 31 g/ha [14]: 0%; pest or weed control at 125 g/ha [15]: 70%; pest or weed control at 31 g/ha [15]: 20%; plant injury at 31 g/ha [16]: 0%; pest or weed control at 250 g/ha [17]: 60%; pest or weed control at 250 g/ha [18]: 100%; pest or weed control at 250 g/ha [19]: 50%; pest or weed control at 250 g/ha [20]: 0% |
| CN1C[C@H](c2ccc(C#N)c(F)c2)[C@@H](C(=O)Nc2ccccc2F)C1=O [Compound 1190] | 0 | 0 | 50 | 90 | 60 | 90 | 0 | 0 | 0 | 0 | 0 | 0 | 20 | 0 | 0 | 0 | 60 | 0 | 0 | 0 | plant injury at 125 g/ha [11]: 0%; plant injury at 31 g/ha [11]: 0%; pest or weed control at 125 g/ha [12]: 20%; pest or weed control at 31 g/ha [12]: 0%; pest or weed control at 125 g/ha [13]: 0%; pest or weed control at 31 g/ha [13]: 0%; pest or weed control at 125 g/ha [14]: 0%; pest or weed control at 31 g/ha [14]: 0%; pest or weed control at 125 g/ha [15]: 0%; pest or weed control at 31 g/ha [15]: 0%; plant injury at 125 g/ha ([16]; 125 g ai/ha, postemergence, visual injury vs untreated controls after approx. 10 d, 0 = no effect, 100 = complete control): 0%; plant injury at 31 g/ha [16]: 0%; pest or weed control at 250 g/ha [17]: 55%; pest or weed control at 250 g/ha [18]: 90%; pest or weed control at 250 g/ha [19]: 40%; pest or weed control at 250 g/ha [20]: 0% |
